# Test system: 15-hydroxyprostaglandin dehydrogenase
# Assay: Isotopic exchange assay using 15-hydroxyprostaglandin dehydrogenase: specificity
# Type: biochemical, pig
# Conditions: not given
# Experimental: 11α,15-dihydroxy-9-oxoprost-13-enoate and 11α-hydroxy-9, 15-dioxoprost-13-enoate are determined using 15-hydroxyprostaglandin dehydrogenase from pig lung obtained by the procedure of Anggard, E.; Samuelsson, B. "Methods in Enzymology", vol. 14, page 215 (Academic Press, New York, 1969), pages 215-219 of which are incorporated herein by reference. The assay will detect most 15-hydroxy or 15-oxo-prostaglandins except those containing the dienone chromophore such as prostaglandin B compounds and their 19-hydroxylated derivatives.
row,Molecule,replacement of NAD as cofactor
1,nicotinamide adenine dinucleotide phosphate [NAD(P)],will not replace NAD

# Test system: ω-hydroxydecanoate dehydrogenase
# Assay: Isotopic exchange assay using ω-hydroxydecanoate dehydrogenase: specificity
# Type: biochemical, rabbit
# Conditions: 10-hydroxydecanoate / 10-oxodecanoate assay
# Description: The enzyme obtained will be contaminated to some degree with L-lactate dehydrogenase (I.U.B. 1.1.1.27).
row,Molecule,interference with assay results
1,CCO [ethanol],will not interfere with assay results
2,NCCO [ethanolamine],will not interfere with assay results
3,C[C@@H](O)[C@H](N)C(=O)O [threonine],will not interfere with assay results
4,N[C@@H](CO)C(=O)O [serine],will not interfere with assay results
5,Cc1ncc(CO)c(CO)c1O [pyridoxine],will not interfere with assay results

# Same assay, conditions: value in brackets after the substrate
row,Molecule,relative rate of reaction
1,O=C(O)CCCCCCCCCO [10-hydroxycaproate],0.90
2,O=C(O)CCCCCCCCCCO [11-hydroxy undecanoate],100

# Test system: fructuronate reductase
# Assay: Isotopic exchange assay using fructuronate reductase: specificity
# Type: biochemical, Escheria coli K-12 strain S 3000 (Hfr H)
# Conditions: not given
# Experimental: D-mannonate and D-fructuronate are determined using fructuronate reductase from Escheria coli K-12 strain S 3000 (Hfr H) obtained by the procedure of Portalier, R.; Stoeber, F. "Methods in Enzymology", vol. 89, page 210 (Academic Press, New York, 1982), pages 210-218 of which are incorporated herein by reference. […] D-tagaturonate and D-altronate are 20% as active as D-fructuronate and D-mannonate, respectively.
row,Molecule,substitution for NAD as cofactor
1,nicotinamide adenine dinucleotide phosphate [NAD(P)],will not substitute for AND

# Same assay, conditions: D-mannonate / D-fructuronate assay
row,Molecule,interference with assay results
1,O=C[C@@H](O)[C@H](O)[C@@H](O)CO [L-xylose],will not interfere with assay results
2,O=C(CO)[C@@H](O)[C@H](O)[C@H](O)CO [D-fructose],will not interfere with assay results
3,O=C[C@@H](O)[C@@H](O)[C@H](O)[C@H](O)CO [D-mannose],will not interfere with assay results
4,O=C[C@H](O)[C@@H](O)[C@@H](O)[C@H](O)CO [D-galactose],will not interfere with assay results
5,O=C(CO)[C@@H](O)[C@H](O)[C@H](O)[C@H](O)CO [D-altro-heptulose],will not interfere with assay results
6,O=C[C@H](O)[C@H](O)[C@H](O)CO [D-ribose],will not interfere with assay results
7,O=C[C@@H](O)[C@H](O)[C@H](O)CO [D-arabinose],will not interfere with assay results
8,O=C(CO)[C@@H](O)[C@@H](O)[C@H](O)CO [D-tagatose],will not interfere with assay results
9,O=C(CO)[C@H](O)[C@@H](O)[C@H](O)CO [D-sorbose],will not interfere with assay results
10,O=C[C@@H](O)[C@@H](O)[C@H](O)[C@H](O)C(O)CO (stereo partly drawn) [D-manno-heptose],will not interfere with assay results
11,O=C[C@H](O)[C@@H](O)[C@@H](O)CO [L-arabinose],will not interfere with assay results
12,O=C[C@H](O)[C@@H](O)[C@H](O)CO [D-xylose],will not interfere with assay results
13,O=C[C@H](O)[C@@H](O)[C@H](O)[C@H](O)CO [D-glucose],will not interfere with assay results
14,O=C[C@H](O)[C@H](O)[C@@H](O)CO [L-lyxose],will not interfere with assay results
15,O=C(CO)[C@H](O)[C@H](O)CO [D-ribulose],will not interfere with assay results

# Test system: soluble 17β-hydroxysteroid dehydrogenase
# Assay: Isotopic exchange assay using 17β-hydroxysteroid dehydrogenase: specificity
# Type: biochemical, human
# Conditions: not given
# Experimental: Estradiol-17β and estrone are determined using soluble 17β-hydroxysteroid dehydrogenase from human term placenta obtained by the procedure of Jarabak, J. "Methods in Enzymology", vol.
row,Molecule,rate of reaction relative to estrone
1,CC(=O)[C@H]1CC[C@H]2[C@@H]3CCC4=CC(=O)CC[C@]4(C)[C@H]3CC[C@]12C [Progesterone],one-fiftieth
2,C[C@H](O)[C@H]1CC[C@H]2[C@@H]3CCC4=CC(=O)CC[C@]4(C)[C@H]3CC[C@]12C [20α-hydroxy derivative],one-fiftieth

# Same assay, conditions: estradiol-17β / estrone assay
row,Molecule,interference with assay results
1,C[C@]12CC[C@@H]3c4ccc(O)cc4CC[C@H]3[C@@H]1C[C@H](O)C2 [16β-estradiol],will not interfere with the assay results

# Test system: D-lactate dehydrogenase
# Assay: Isotopic exchange assay using D-lactate dehydrogenase: specificity
# Type: biochemical
# Conditions: D-lactate / pyruvate assay, enzyme from Lactobacillus plantarum
# Experimental: D-lactate and pyruvate in plasma are determined using D-lactate dehydrogenase from Lactobacillus leichmannii (Sigma or Boehringer-Mannheimbiochemicals) obtained by the procedure of Brandt, R. B. "Methods in Enzymology", vol. 89, page 35 (Academic Press, New York, 1982), pages 35-40 of which are incorporated herein by reference. The assay will detect D-lactate concentrations in plasma from 0.006 to 1.2 mM and at higher concentrations in food or microbiological samples. If the enzyme is from Lactobacillus plantarum obtained according to Dennis, D.; Kaplan, N. O. J. Bio.
row,Molecule,interference with assay results
1,CCCC[C@@H](O)C(=O)O,will not interfere with the assay results
2,CC[C@@H](O)C(=O)O [2-hydroxy-D-butyrate],will not interfere with the assay results
3,C[C@H](O)C(=O)O [L-lactate],will not interfere with the assay results
4,CC(C)C[C@@H](O)C(=O)O,will not interfere with the assay results
5,CC(C)[C@@H](O)C(=O)O [Disovalerate],will not interfere with the assay results

# Same assay, conditions: enzyme from Lactobacillus plantarum
row,Molecule,replacement of NAD as cofactor
1,nicotinamide adenine dinucleotide phosphate [NAD(P)],will not replace NAD

# Test system: homoserine dehydrogenase
# Assay: Isotopic exchange assay using homoserine dehydrogenase: specificity
# Type: biochemical, Baker's Yeast
# Conditions: not given
# Experimental: Homoserine and aspartic-β-semialdehyde are determined using homoserine dehydrogenase from Baker's Yeast (Anheuser-Busch) obtained by the procedure of Black, S. "Methods in Enzymology", vol. V, page 820 (Academic Press, New York, 1962), pages 824-827 of which are incorporated herein by reference. […] Other non-interfering substances will include 3-aminopropanol, γ-hydroxybutyrate, acetaldehyde, DL-threonine, DL-serine, and DL-homocysteine. DL-glutamic γ-semialdehyde will react at 1% of the rate of aspartic-β-semialdehyde.
row,Molecule,rate of reaction relative to aspartic-β-semialdehyde [%]
1,NC(CCC=O)C(=O)O (racemic) [DL-glutamic γ-semialdehyde],1

# Same assay, conditions: homoserine / aspartic-β-semialdehyde assay
row,Molecule,interference with assay results
1,NC(CO)C(=O)O (racemic) [DL-serine],non-interfering
2,NC(CCS)C(=O)O (racemic) [DL-homocysteine],non-interfering
3,CC=O [acetaldehyde],non-interfering
4,C[C@@H](O)[C@H](N)C(=O)O (racemic) [DL-threonine],non-interfering
5,NCCCO [3-aminopropanol],non-interfering

# Test system: 21-hydroxysteroid dehydrogenase
# Assay: Isotopic exchange assay using 21-hydroxysteroid dehydrogenase: specificity
# Type: biochemical, sheep
# Conditions: not given
# Experimental: Cortisol and 21-dehydrocortisol are determined using AND dependent 21-hydroxysteroid dehydrogenase from sheep liver obtained by the procedure of Monder, C.; Furfine, C. S. "Methods in Enzymology", vol. […] 21-hydroxy-derivatives of cortisol, cortisone, corticosterone, 11-deoxycortisol, Δ^1 -cortisone, Δ^1 -cortisol, 11-deoxycorticosterone, and 9α-fluorocortisol will all be assayed using this enzyme.
row,Molecule,replacement of NAD as cofactor
1,nicotinamide adenine dinucleotide phosphate [NAD(P)],will not replace NAD

# — patent US5272054A, “Assay by enzyme-catalyzed isotopic exchange” (Syntex (U.S.A.) Inc., priority 1992, dated 1993)
